According to patent US6958335B2, “Treatment of gastrointestinal stromal tumors” (Novartis AG, priority 2000, dated 2005):
Where two headings read alike, the source gives them in different places.

How the values were obtained:
[1] = tested on: unresectable metastatic GIST; conditions: for total tumour size (tumour area of 8 large measurable liver metastases, MRI): 112.5 cm^2 before treatment
Experimental: Seven cycles of IADIC (ifosfamide, doxoribicin, and dacarbazine) were given from November 1998 to March 1999 for multiple liver metastases. […] They were subsequently treated between April 1999 and February 2000 with an experimental regimen consisting of thalidomide 400 mg once daily and interferon alpha 0.9 MU T.I.D. s.c. to control persisting liver disease.
(§1) Treatment toxicity was assessed at follow-up visits performed at 2 to 4 week intervals, and blood cell counts and blood chemistry were analysed at 1 to 2 week intervals. Treatment response was assessed with dynamic MRI scans, ^18F-fluorodeoxyglucose (FDG) positron emission tomography (PET) examinations, and cutting needle biopsies from a liver metastasis. Dynamic MRI was performed with a 1.5T Magnetom Vision (Siemens, Erlangen, Germany). Fat-suppressed T1-weighted breathhold gradient echo transaxial images were obtained both before and after intravenous contrast medium injection (0.1 mmol/kg gadolinium-DOTA; Dotarem, Guerbet, France). The enhancement pattern was established using sequential imaging over 5 minutes, and delayed scanning was performed after 10 minutes. FDG PET was done using an 8-ring ECAT 931/08 device (Siemens-CTI Corp. Knoxville, Tenn.). The FDG dose given varied between 355 to 375 MBq.

[2] = during therapy
Experimental: as §1, with “minutes.” for “minutes. FDG PET was done using an 8-ring ECAT 931/08 device (Siemens-CTI Corp. Knoxville, Tenn.). The FDG dose given varied between 355 to 375 MBq.”

GIST = tested on: GIST
From the text: At the priority date of the present patent application a clinical study with more GIST patients was being conducted analogously to the study described in Example 1.

[3] = tested on: unresectable and/or metastatic malignant gastrointestinal stromal tumors (GIST)
Experimental: A phase 2, open-label, randomized multinational study was conducted in patients with unresectable and/or metastatic malignant gastrointestinal stromal tumors (GIST). […] The primary evidence of efficacy was based on objective response rates, and the time to response, duration of response, time to treatment failure and survival were also evaluated. Tumors were required to be measurable in at least one site of disease, and response characterization based on Southwestern Oncology Group (SWOG) criteria.

[4] = among the 61 patients with stable disease

CS(=O)(=O)O.Cc1ccc(NC(=O)c2ccc(CN3CCN(C)CC3)cc2)cc1Nc1nccc(-c2cccnc2)n1 [SALT I]
metabolic response in tumour (PET imaging) ([1]; 400 mg daily orally, within 1 month): complete metabolic response
decrease of total tumour size (MRI) ([1]; 1 month): 52%
total tumour size (tumour area of 8 large measurable liver metastases, MRI) ([1]; 1 month): 54.3 cm^2
decrease of total tumour size (MRI) ([1]; 2 months): 63%
total tumour size (tumour area of 8 large measurable liver metastases, MRI) ([1]; 2 months): 41.5 cm^2
decrease of total tumour size (MRI) ([1]; 2 weeks after starting): 41%
total tumour size (tumour area of 8 large measurable liver metastases, MRI) ([1]; 2 weeks after starting): 66.9 cm^2
decrease of total tumour size (MRI) ([1]; 4 months): 68%
total tumour size (tumour area of 8 large measurable liver metastases, MRI) ([1]; 4 months): 36.2 cm^2
decrease of total tumour size (MRI) ([1]; 5.5 months): 71%
total tumour size (tumour area of 8 large measurable liver metastases, MRI) ([1]; 5.5 months): 32.5 cm^2
FDG uptake in PET ([1]; PET 1 month after starting): no abnormal FDG uptake was present in the liver
FDG uptake in PET at the sites of liver metastases ([1]; PET 2 months after starting): less FGD uptake than the surrounding liver parenchyma
World Health Organization (WHO) performance status ([1]; during therapy, improved from 1 before): 0
new lesions ([1]; follow-up MRI on treatment): No new lesions appeared
liver metastases that disappeared ([1]; of the 28 liver metastases, follow-up MRI on treatment): 6
pattern of contrast enhancement of tumour by dynamic MRI ([1]; within 2 weeks after starting): decreased dramatically
drug-related liver, renal or cardiac toxicity [2]: No drug-related liver, renal or cardiac toxicity was observed
reduction in patients with partial response (GIST; 8 patients): 50-66%
reduction in patients with stable disease (GIST; 18 patients): 4-42%
patients with partial response (GIST; of 27 evaluated patients): 8 patients
patients with stable disease (GIST; of 27 evaluated patients): 18 patients
patients with progression of the disease (GIST; of 27 evaluated patients, study not finished): 1 patient
Best response: Complete response ([3]; 400 mg (N = 73)): 0 n (%)
Best response: Not evaluable ([3]; 400 mg (N = 73)): 3 (4.1) n (%)
Best response: Partial response ([3]; 400 mg (N = 73)): 27 (37.0) n (%)
Best response: Progressive disease ([3]; 400 mg (N = 73)): 10 (13.7) n (%)
Best response: Stable disease ([3]; 400 mg (N = 73)): 33 (45.2) n (%)
Best response: Unknown ([3]; 400 mg (N = 73)): 0 n (%)
differences between dose groups in efficacy parameters ([3]; 400 mg vs 600 mg): could not be observed
Best response: Complete response ([3]; 600 mg (N = 74)): 0 n (%)
Best response: Not evaluable ([3]; 600 mg (N = 74)): 4 (5.4) n (%)
Best response: Partial response ([3]; 600 mg (N = 74)): 32 (43.2) n (%)
Best response: Progressive disease ([3]; 600 mg (N = 74)): 8 (10.8) n (%)
Best response: Stable disease ([3]; 600 mg (N = 74)): 28 (37.8) n (%)
Best response: Unknown ([3]; 600 mg (N = 74)): 2 (2.7) n (%)
Best response: Complete response ([3]; All doses (N = 147)): 0 n (%)
Best response: Not evaluable ([3]; All doses (N = 147)): 7 (4.8) n (%)
Best response: Partial response ([3]; All doses (N = 147)): 59 (40.1) n (%)
Best response: Stable disease ([3]; All doses (N = 147)): 61 (41.5) n (%)
Best response: Unknown ([3]; All doses (N = 147)): 2 (1.4) n (%)
patients with reduction in tumor size by more than 25% on at least one assessment ([3]; all 147 patients): 118 patients
share of patients with reduction in tumor size by more than 25% on at least one assessment ([3]; all 147 patients): 80%
patients with partial response not yet confirmed by a second assessment [3, 4]: 28 patients
patients with reduction in tumor size by more than 25% [3, 4]: 19 patients
patients with significant tumor shrinkage among stable disease [3, 4]: 47 patients
estimate of patients free from treatment failure ([3]; at 12 weeks, interval censoring): 80%
estimate of patients free from treatment failure ([3]; at 12 weeks, without interval-censoring): 81%
estimate of patients free from treatment failure ([3]; at 24 weeks, interval censoring): 66%
estimate of patients free from treatment failure ([3]; at 24 weeks, without interval-censoring): 67%
median time to the onset of response ([3]; entire study population): 12 weeks
relapse among patients with confirmed response ([3]; interim analysis): No patients with confirmed response had relapsed
median duration of response ([3]; interim analysis, no interval censoring): approximately 14 weeks
median time to treatment failure ([3]; interval censoring, pooled population, based on only two patients, not reliable): 54 weeks
